Source: patent US7981444B2, “Dendritic polymers with enhanced amplification and interior functionality” (Dendritic Nanotechnologies, Inc., priority 2004, dated 2011)

Tests used:
[1] = cited from earlier work
[2] = Thermal Gravimetric Analysis (TGA); format: physicochemical; settings: in nitrogen, scan 20 to 520° C., ramp rate 10 degrees per minute
Protocol: Thermal Gravimetric Analysis (TGA)
Thermal gravimetric data were obtained on a Universal V3.9A TA Instrument. Temperature scan range was from 20 to 520° C. with a ramp rate of 10 degrees per minute. Sample sizes were typically about 10 mg of solid product.
In comparison, curves 1 and 2 show the thermal degradation profiles of products of Examples 7D and 13, respectively.
TGA Under Same Conditions as Comparative Example I for Various Dendrimers of Formula (I) and PAMAM

For tris(hydroxymethyl)amino methane, the pKa value [1] is given as 8.10.

For `COC(=O)C1CC(=O)N(CCN(CCN2CC(C(=O)OC)CC2=O)CC(O)Cn2c(=O)n(CC(O)CN(CCN3CC(C(=O)OC)CC3=O)CCN3CC(C(=O)OC)CC3=O)c(=O)n(CC(O)CN(CCN3CC(C(=O)OC)CC3=O)CCN3CC(C(=O)OC)CC3=O)c2=O)C1` (stereo not shown) [Example 33], the “Onset Temp. (° C.)” value [2] was 320 °C, the “Temp. (° C.) at 50% wt loss” value [2] was 407 °C and the “Temp. (° C.) at Residue” value [2] was 500+ ° C.
